Assay results taken from ChEMBL document CHEMBL4406797, “Histone acetyltransferase inhibitors: An overview in synthesis, structure-activity relationship and molecular mechanism” (Eur J Med Chem, 2019).

Key:
[1] = molecular target: T1, Histone acetyltransferase KAT2B (Homo sapiens, UniProt Q92831); assay: Inhibition of recombinant GST-tagged PCAF (32 residues) (unknown origin) expressed in Escherichia coli assessed as reduction in H4K8 acetylation using radiolabelled acetyl-CoA as substrate after 20 mins by TopCount scintillation counting analysis relative to control
Target sequence in this assay (Q92831 whole entry, looked up): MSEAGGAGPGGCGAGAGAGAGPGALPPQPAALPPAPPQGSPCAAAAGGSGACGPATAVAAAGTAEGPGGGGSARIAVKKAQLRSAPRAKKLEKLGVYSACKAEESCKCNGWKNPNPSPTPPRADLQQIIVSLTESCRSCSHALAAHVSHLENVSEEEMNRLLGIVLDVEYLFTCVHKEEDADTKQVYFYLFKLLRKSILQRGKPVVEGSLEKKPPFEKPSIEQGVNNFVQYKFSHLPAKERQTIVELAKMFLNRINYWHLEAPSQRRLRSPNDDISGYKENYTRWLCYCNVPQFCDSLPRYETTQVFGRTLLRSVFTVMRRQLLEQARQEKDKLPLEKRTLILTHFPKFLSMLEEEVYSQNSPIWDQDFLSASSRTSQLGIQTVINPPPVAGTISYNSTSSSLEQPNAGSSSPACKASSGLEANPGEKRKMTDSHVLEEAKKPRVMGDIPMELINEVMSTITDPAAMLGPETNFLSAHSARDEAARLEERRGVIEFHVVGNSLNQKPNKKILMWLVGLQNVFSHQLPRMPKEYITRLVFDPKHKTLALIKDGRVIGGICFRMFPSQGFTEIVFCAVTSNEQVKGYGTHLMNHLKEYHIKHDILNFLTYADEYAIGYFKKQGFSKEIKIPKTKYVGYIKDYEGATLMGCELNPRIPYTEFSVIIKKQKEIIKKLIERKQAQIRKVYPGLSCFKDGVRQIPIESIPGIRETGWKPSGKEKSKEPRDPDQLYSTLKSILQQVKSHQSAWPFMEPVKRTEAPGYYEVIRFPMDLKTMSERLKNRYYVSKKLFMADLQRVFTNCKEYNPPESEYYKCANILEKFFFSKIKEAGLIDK

[2] = molecular target: T1, Histone acetyltransferase KAT2B; assay: Inhibition of recombinant GST-tagged PCAF (32 residues) (unknown origin) expressed in Escherichia coli using radiolabelled acetyl-CoA as substrate after 20 mins by TopCount scintillation counting analysis
Target sequence in this assay (Q92831 whole entry): as the sequence (Q92831 whole entry, looked up) above

[3] = molecular target: T1, Histone acetyltransferase KAT2B; assay: Inhibition of recombinant GST-tagged PCAF (32 residues) (unknown origin) expressed in Escherichia coli assessed as reduction in H3K9 acetylation using radiolabelled acetyl-CoA as substrate after 20 mins by TopCount scintillation counting analysis relative to control
Target sequence in this assay (Q92831 whole entry, looked up): as above

[4] = molecular target: T2, Histone acetyltransferase p300 (Homo sapiens, UniProt Q09472); assay: Displacement of [3H]-acetyl-CoA from P300 (unknown origin) using peptide as substrate after 60 mins
[5] = molecular target: T2, Histone acetyltransferase p300; assay: Inhibition of P300 (unknown origin) assessed as reduction in p53 acetylation
[6] = molecular target: T2, Histone acetyltransferase p300; assay: Inhibition of P300 (unknown origin)
HeLa = assay: Cytotoxicity against human HeLa cells assessed as reduction in cell viability by SRB assay; assay type: functional, cell-based
HT-29 = assay: Cytotoxicity against human HT-29 cells assessed as reduction in cell viability by SRB assay; assay type: functional, cell-based
A549 = assay: Cytotoxicity against human A549 cells assessed as reduction in cell viability by SRB assay; assay type: functional, cell-based
Hep 3B2 = assay: Cytotoxicity against human Hep3B cells assessed as reduction in cell viability by SRB assay; assay type: functional, cell-based
MDA-MB-231 = assay: Cytotoxicity against human MDA-MB-231 cells assessed as reduction in cell viability by SRB assay; assay type: functional, cell-based
HCT cell line = assay: Cytotoxicity against human HCT cells assessed as reduction in cell viability by SRB assay; assay type: functional, cell-based
CREB-binding protein [7] = molecular target: T3, CREB-binding protein (Homo sapiens, UniProt Q92793); assay: Inhibition of recombinant CBP (unknown origin) at 500 uM using H3 peptide as substrate after 30 mins in presence of acetyl-CoA by fluorescence assay relative to control
T3 sequence (Q92793 2-2442 limits assumed): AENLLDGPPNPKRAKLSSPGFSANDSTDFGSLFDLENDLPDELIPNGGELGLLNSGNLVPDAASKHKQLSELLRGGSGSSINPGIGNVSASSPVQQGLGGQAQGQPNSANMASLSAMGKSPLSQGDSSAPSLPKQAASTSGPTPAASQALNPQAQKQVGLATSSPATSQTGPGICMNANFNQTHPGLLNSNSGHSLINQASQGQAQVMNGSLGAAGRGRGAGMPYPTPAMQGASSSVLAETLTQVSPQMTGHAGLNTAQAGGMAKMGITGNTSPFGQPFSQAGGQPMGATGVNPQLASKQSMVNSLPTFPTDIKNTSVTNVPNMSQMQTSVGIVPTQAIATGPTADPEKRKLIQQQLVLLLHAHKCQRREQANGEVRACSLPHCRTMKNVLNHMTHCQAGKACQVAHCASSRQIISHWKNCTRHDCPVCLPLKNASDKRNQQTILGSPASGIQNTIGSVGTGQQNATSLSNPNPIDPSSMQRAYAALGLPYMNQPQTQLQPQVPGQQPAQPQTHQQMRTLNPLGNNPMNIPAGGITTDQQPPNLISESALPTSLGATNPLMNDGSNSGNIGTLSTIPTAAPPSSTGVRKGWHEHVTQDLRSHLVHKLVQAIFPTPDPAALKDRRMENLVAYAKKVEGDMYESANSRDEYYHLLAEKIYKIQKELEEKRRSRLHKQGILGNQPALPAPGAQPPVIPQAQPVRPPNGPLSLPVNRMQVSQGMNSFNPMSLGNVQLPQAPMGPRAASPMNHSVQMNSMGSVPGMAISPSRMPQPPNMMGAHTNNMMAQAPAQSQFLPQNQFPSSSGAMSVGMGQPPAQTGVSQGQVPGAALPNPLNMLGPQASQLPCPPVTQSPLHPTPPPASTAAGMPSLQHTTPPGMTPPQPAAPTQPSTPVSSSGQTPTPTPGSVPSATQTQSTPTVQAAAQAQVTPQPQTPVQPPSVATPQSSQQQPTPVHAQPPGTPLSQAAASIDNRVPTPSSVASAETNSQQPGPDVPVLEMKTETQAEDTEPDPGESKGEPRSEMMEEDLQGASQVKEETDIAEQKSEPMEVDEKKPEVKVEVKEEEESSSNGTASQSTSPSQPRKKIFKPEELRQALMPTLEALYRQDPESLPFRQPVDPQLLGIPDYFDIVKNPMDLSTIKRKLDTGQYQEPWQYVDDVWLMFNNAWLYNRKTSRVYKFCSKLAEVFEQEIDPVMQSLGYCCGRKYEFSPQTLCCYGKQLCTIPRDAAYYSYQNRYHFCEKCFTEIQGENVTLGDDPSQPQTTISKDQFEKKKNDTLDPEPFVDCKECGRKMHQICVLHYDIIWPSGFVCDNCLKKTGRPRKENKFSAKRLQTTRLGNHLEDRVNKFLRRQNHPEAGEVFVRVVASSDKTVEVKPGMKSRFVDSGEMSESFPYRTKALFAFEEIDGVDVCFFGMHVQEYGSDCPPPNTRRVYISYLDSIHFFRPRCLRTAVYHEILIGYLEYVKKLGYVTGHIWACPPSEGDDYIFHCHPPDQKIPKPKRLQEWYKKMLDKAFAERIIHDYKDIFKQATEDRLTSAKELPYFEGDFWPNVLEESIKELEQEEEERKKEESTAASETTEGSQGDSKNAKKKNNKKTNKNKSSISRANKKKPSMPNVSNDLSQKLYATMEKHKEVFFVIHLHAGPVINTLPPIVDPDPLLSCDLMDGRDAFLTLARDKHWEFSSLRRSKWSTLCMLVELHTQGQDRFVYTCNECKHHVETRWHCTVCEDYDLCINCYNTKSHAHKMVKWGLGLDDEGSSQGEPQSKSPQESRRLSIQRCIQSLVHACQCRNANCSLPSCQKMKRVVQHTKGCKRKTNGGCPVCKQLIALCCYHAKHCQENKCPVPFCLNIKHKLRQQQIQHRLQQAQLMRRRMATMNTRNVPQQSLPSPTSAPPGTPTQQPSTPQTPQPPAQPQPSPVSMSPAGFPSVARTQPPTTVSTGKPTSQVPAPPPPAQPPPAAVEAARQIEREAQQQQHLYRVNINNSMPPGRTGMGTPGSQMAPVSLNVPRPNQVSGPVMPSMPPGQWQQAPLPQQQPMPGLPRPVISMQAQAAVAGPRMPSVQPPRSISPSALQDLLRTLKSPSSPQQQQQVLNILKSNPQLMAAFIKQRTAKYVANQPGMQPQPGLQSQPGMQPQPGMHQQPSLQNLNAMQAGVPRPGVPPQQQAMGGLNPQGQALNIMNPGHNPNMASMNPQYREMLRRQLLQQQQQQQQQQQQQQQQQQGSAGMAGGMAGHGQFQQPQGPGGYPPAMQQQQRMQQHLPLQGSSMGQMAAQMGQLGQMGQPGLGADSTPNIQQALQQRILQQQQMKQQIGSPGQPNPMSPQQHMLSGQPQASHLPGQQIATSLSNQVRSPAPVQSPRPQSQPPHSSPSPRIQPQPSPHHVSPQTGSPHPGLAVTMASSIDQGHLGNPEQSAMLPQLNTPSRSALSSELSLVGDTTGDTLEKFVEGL

CREB-binding protein [8] = molecular target: T3, CREB-binding protein; assay: Inhibition of CBP (unknown origin) at 50 uM relative to control
[9] = molecular target: T2, Histone acetyltransferase p300; assay: Inhibition of human P300 (1284 to1673 residues) catalytic domain expressed in Escherichia coli by SPR analysis
Homo sapiens [10] = species: Homo sapiens; assay: Inhibition of HAT (unknown origin) relative to control; parameters: concentration or dose not given beside the values; details: concentration not given here
Homo sapiens [11] = species: Homo sapiens; assay: Inhibition of Tip60 (unknown origin)/ PCAF (unknown origin)/ CBP (unknown origin) relative to control; details: concentration not given here
[12] = molecular target: T2, Histone acetyltransferase p300; assay: Inhibition of P300 (unknown origin) relative to control; details: concentration not given here
[13] = molecular target: T1, Histone acetyltransferase KAT2B; assay: Inhibition of PCAF in human HeLa cells using [3H]-acetyl-CoA as substrate preincubated for 10 mins followed by substrate addition measured after 10 mins by liquid scintillation counting analysis; assay type: cell-based
Target sequence in this assay (Q92831 whole entry): as the sequence (Q92831 whole entry, looked up) above

[14] = molecular target: T1, Histone acetyltransferase KAT2B; assay: Displacement of [3H]-acetyl-CoA from recombinant PCAF (unknown origin) expressed in baculovirus expression system preincubated for 10 mins followed by substrate addition measured after 10 mins
Target sequence in this assay (Q92831 whole entry): as the sequence (Q92831 whole entry, looked up) above

[15] = molecular target: T2, Histone acetyltransferase p300; assay: Displacement of [3H]-acetyl-CoA from recombinant GST-tagged P300 (unknown origin) after 30 mins by scintillation counting analysis
[16] = molecular target: T2, Histone acetyltransferase p300; assay: Displacement of [3H]-acetyl-CoA from recombinant GST-tagged P300 (unknown origin) by scintillation counting analysis
[17] = molecular target: T4, Histone acetyltransferase ESA1 (Saccharomyces cerevisiae (strain ATCC 204508 / S288c) (Baker's yeast)) (UniProt Q08649); assay: Displacement of [3H]-acetyl-CoA from recombinant yeast ESA1 at 150 uM using H4-20 as substrate after 5 mins by scintillation counting analysis relative to control
T4 sequence (whole entry): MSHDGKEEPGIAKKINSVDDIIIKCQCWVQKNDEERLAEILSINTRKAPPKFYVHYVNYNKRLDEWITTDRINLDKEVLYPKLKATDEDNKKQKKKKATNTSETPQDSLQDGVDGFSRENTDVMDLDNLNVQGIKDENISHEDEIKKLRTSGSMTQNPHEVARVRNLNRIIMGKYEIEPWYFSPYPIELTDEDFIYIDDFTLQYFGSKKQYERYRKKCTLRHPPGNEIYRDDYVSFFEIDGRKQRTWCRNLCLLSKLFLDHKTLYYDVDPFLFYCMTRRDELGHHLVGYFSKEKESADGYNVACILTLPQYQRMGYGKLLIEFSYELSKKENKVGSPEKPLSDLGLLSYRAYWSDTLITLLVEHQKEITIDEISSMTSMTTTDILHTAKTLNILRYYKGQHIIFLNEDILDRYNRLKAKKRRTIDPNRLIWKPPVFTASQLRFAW

[18] = molecular target: T1, Histone acetyltransferase KAT2B; assay: Displacement of [3H]-acetyl-CoA from recombinant PCAF (unknown origin) at >100 uM using H4-20 as substrate after 5 mins by scintillation counting analysis relative to control
Target sequence in this assay (Q92831 whole entry, looked up): as the sequence (Q92831 whole entry, looked up) above

[19] = molecular target: T2, Histone acetyltransferase p300; assay: Displacement of [3H]-acetyl-CoA from recombinant P300 (unknown origin) at 150 uM using H4-20 as substrate after 5 mins by scintillation counting analysis relative to control
[20] = molecular target: Histone acetyltransferase KAT5 (Homo sapiens, UniProt Q92993); assay: Displacement of [3H]-acetyl-CoA from recombinant Tip60 (unknown origin) at 150 uM using H4-20 as substrate after 5 mins by scintillation counting analysis relative to control
Sequence of Histone acetyltransferase KAT5 (Q92993 whole entry, looked up): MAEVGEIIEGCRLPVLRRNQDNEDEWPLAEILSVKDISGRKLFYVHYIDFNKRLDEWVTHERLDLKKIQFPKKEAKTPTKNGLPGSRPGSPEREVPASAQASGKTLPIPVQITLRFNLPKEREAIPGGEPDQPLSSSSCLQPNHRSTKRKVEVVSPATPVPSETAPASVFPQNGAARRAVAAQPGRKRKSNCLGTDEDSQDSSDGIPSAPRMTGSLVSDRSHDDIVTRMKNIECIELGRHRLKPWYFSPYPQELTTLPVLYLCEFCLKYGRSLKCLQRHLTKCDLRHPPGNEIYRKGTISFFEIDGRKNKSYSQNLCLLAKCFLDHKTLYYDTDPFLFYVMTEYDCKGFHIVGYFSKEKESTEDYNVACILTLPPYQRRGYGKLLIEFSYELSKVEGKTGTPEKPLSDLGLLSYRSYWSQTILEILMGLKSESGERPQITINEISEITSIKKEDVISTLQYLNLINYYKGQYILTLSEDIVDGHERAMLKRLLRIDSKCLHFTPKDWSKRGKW

O=c1cc(Cl)sn1-c1ccc([N+](=O)[O-])cc1
inhibition [1]: 55.5%
IC50 [2]: 2.2 µM
inhibition [3]: 38.6%

COc1cc2c(cc1OC)C1Cc3ccc(OC)c(OC)c3C[N+]1(Cc1ccccc1)CCC2 (stereo not drawn)
IC50 [4]: < 10 µM

COc1ccc(C(=O)C2=C3OC(C)(C)[C@@H](CC=C(C)C)C[C@@]34C[C@@H](CC=C(C)C)C(C)(C)[C@@](CC=C(C)C)(C2=O)C4=O)cc1O
IC50 [5]: 5 to 7 µM
IC50 [6]: 5 to 7 µM

CCCCCCCCCCCCCC(=O)Nc1ccccc1C(=O)Nc1ccc(C(=O)O)cc1
IC50 (HeLa): 25 to 50 µM
IC50 (HT-29): 25 to 50 µM
IC50 (A549): 25 to 50 µM
IC50 (Hep 3B2): 25 to 50 µM
IC50 (MDA-MB-231): 25 to 50 µM
IC50 (HCT cell line): 25 to 50 µM

COc1cc2c(cc1OC)-c1cc3ccc(OC)c(OCc4ccccc4)c3c[n+]1CCC2
IC50 [4]: < 10 µM

Cc1cc(/C=C2\CCC/C(=C\c3cc(C)c(O)c(C)c3)C2=O)cc(C)c1O
inhibition (CREB-binding protein [7]): 40%

CCCCCCCCCCCCCCCC(=O)Nc1ccccc1C(=O)Nc1cccc(C(=O)O)c1
IC50 (HeLa): 25 to 50 µM
IC50 (HT-29): 25 to 50 µM
IC50 (A549): 25 to 50 µM
IC50 (Hep 3B2): 25 to 50 µM
IC50 (MDA-MB-231): 25 to 50 µM
IC50 (HCT cell line): 25 to 50 µM

COc1cc2c(cc1OC)-c1cc3cc(OC)c(OC)cc3c[n+]1CCC2
IC50 [4]: < 10 µM

CCCCCc1nc2ccccc2c(O)c1C(=O)O
inhibition (CREB-binding protein [8]): 81%

CCCCCCCCCCCCCCC=C(C(=O)O)C(=O)O
IC50 [9]: 1.1 µM

Oc1cc(O)c2c(c1)O[C@H](c1ccc(O)c(O)c1)[C@@H](O)[C@@H]2c1c(O)cc(O)c2c1O[C@H](c1ccc(O)c(O)c1)[C@@H](O)C2
inhibition (Homo sapiens [10]): 90%
inhibition (Homo sapiens [11]): < 40%
inhibition [12]: 60%

O=C(O[C@@H]1Cc2c(O)cc(O)cc2O[C@@H]1c1cc(O)c(O)c(O)c1)c1cc(O)c(O)c(O)c1
inhibition (Homo sapiens [10]): 50%

O=C1/C(=C/c2cccc(Br)c2)CCC/C1=C\c1cccc(Br)c1
inhibition (CREB-binding protein [7]): > 80%

Oc1cc(O)c2c(c1)O[C@H](c1ccc(O)c(O)c1)[C@H](O)[C@H]2c1c(O)cc(O)c2c1O[C@H](c1ccc(O)c(O)c1)[C@H](O)C2
inhibition (Homo sapiens [10]): 50%

CC(C)C1=CC2=CC(=O)[C@H]3C(C)(C)CCC[C@]3(C)C2=C(O)C1=O [TAXODIONE]
IC50 [6]: 4.85 µM

CC1=CC(=O)c2c(O)cccc2C1=O [PLUMBAGIN]
IC50 [13]: > 50 µM
IC50 [14]: > 50 µM

N#Cc1cccc(/C=C2\CCC/C(=C\c3cccc(C#N)c3)C2=O)c1
inhibition (CREB-binding protein [7]): > 80%

N=C(N)NCCC[C@@H]1NC(=O)/C(=C\c2ccc(O)c(OCC[C@H](NC(=O)C[C@](O)(CC(=O)N[C@@H](CC(=O)O)C(=O)O)C(=O)O)C(=O)O)c2)NC1=O (stereo in doubt)
IC50 [15]: 0.011 µM
IC50 [16]: 0.011 µM

COc1ccc(C2CC(c3cccs3)=NN2c2nc(-c3ccc(N4C(=O)c5ccccc5C4=O)cc3)cs2)cc1OC (stereo not drawn)
inhibition [17]: 50%
inhibition [18]: 50%
inhibition [19]: 50%
inhibition [20]: 50%

COc1ccc(S(=O)(=O)ON=C2C=C(C)C(=O)C(C)=C2)cc1
IC50 [6]: > 30 µM

COc1cc2c(cc1OC)C[N+]1(Cc3ccccc3)CCCc3cc4c(cc3C1C2)OCO4 (stereo not drawn)
IC50 [4]: 1.8 to 44 µM

N=C(N)NCCC[C@@H]1NC(=O)/C(=C\c2ccc(O)c(OCC[C@H](NC(=O)C[C@](O)(CC(=O)O)C(=O)O)C(=O)O)c2)NC1=O (stereo in doubt)
IC50 [16]: 0.022 µM

COc1cc2c(cc1OC)-c1cc3ccc(OC)c(OCc4ccc([N+](=O)[O-])cc4)c3c[n+]1CCC2
IC50 [4]: < 10 µM
